Test results published in patent US6967095B2, “Human secretory type phospholipase A2” (Shionogi & Co., Ltd., priority 1998, dated 2005).

How the values were obtained:
[1] = target: T1, human IIA type secretory PLA2 (Homo sapiens, UniProt P14555); test: Inhibition of secretory PLA2 activity, release of 14C-oleic acid from 14C-POPC; format: biochemical; settings: purified human IIA type (10 ng); 1 mM POPC, 3 mM deoxycholic acid, 2 mM CaCl2, pH 8.0, 40° C., 60 min; FIG. 4
T1 sequence (P14555 21-144): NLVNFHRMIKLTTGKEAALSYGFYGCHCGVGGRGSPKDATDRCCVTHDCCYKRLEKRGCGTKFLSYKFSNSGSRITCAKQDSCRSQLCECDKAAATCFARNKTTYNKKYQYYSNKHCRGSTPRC
Method: (§1) Inhibitory activity against this novel type of human secretory type PLA2 was determined with Indoxam that is a 1-oxamoylindolidine derivative. It has already been reported that Indoxam inhibits the enzymatic activities of IIA type and IB type secretory type PLA2 (Yokota et al., Biochim. Biophys. Acta (1999) 1438, 213-222). The PLA2 activities were determined by the measurement of the quantity of released ^14C-oleic acid from ^14C-labeled 1-palmitoyl-2-oleoyl-phosphatidylcholine (POPC), according to the Draheim et al.'s method (J. Med. Chem., (1996) 39, 5159-5175). In the solution composed of 50 mM Tris-HCl (pH 8.0), 200 mM NaCl, 2 mM CaCl2, and 1 mg/ml bovine serum albumin, the substrates composed of 1 mM POPC (the mixture of about 100,000 cpm ^-C-POPC and unlabeled POPC) and 3 mM deoxycholic acid were incubated with each secretory PLA2 in the presence of various concentrations of Indoxam at 40° C. for 60 min. Then, the quantity of released ^-C-oleic acid was measured. Purified materials were used in the case with human IB type (2 ng), IIA type (10 ng) and X type (4 ng). […]
(§2) The quantity of released ^14C-oleic acid from ^14C-POPC by each human secretory type PLA2 in the absence of Indoxam was regarded as 100% and the quantity of released ^14C-oleic acid in the presence of each concentration of Indoxam was shown as %.

[2] = target: T2, human PLA2 of this invention (IID type) (Homo sapiens, UniProt Q9UNK4); test: as above; format: biochemical; settings: IID type from culture supernatant of CHO cells; 1 mM POPC, 3 mM deoxycholic acid, 2 mM CaCl2, pH 8.0, 40° C., 60 min; FIG. 4
T2 construct: made in house
T2 sequence (Q9UNK4 21-145): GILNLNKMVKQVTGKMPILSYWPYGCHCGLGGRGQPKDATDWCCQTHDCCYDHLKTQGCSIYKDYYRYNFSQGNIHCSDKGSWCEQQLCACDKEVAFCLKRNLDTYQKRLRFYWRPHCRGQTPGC
Method: as §1, §2

[3] = target: T3, IIA type secretory type PLA2 (Homo sapiens, UniProt P14555); settings: already reported, Yokota et al., Biochim. Biophys. Acta (1999) 1438, 213-222; cited from earlier work
T3 sequence (P14555 21-144): T1 sequence (P14555 21-144)

[4] = target: IB type secretory type PLA2 (Homo sapiens, UniProt P04054); settings: already reported, Yokota et al., Biochim. Biophys. Acta (1999) 1438, 213-222; cited from earlier work
Chain of IB type secretory type PLA2 (P04054 23-148): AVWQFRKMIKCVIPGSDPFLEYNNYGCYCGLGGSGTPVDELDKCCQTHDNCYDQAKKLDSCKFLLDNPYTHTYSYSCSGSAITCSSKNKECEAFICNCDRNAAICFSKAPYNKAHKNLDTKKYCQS

## CCc1c(C(=O)C(N)=O)c2c(OCC(=O)O)cccn2c1Cc1ccccc1-c1ccccc1 [Indoxam]
[1]
  inhibition of enzymatic activity (released 14C-oleic acid as % of that without Indoxam): strongly inhibits
[2]
  inhibition of enzymatic activity (released 14C-oleic acid as % of that without Indoxam): strongly inhibits
[3]
  inhibition of enzymatic activity of IIA type secretory type PLA2: inhibits
[4]
  inhibition of enzymatic activity of IB type secretory type PLA2: inhibits
